# Key:
# IL-1β release = IL-1β release assay (THP-1 cells, PMA, LPS, nigericin); type: cell-based; conditions: Homo sapiens, LPS 250 ng/mL, nigericin 20 μM, cleaved IL-1β in media
# Experimental: Approximately 1.5 million THP-1 cells were plated in each well of a 6-well TC plate and incubated with 40 nM PMA in RPMI (10% FBS, 1% Penstrep) for 24 hours. The media was then removed and cells were rested in RPMI (10% FBS, 1% Penstrep) for 24 hours after which time the media was removed and cells were pre-treated for 2 hours with various concentrations of compounds of interest (typically serial 3-fold dilution in RPMI+5% FBS, concentrations ranging from 1 μM to 0.5 nM) in RPMI (5% FBS). The media was again removed and cells were incubated with 250 ng/mL LPS and compounds of interest (concentrations as above) in RMPI (5% FBS) for 2 hours. The media was removed for a last time and cells were incubated with 20 μM nigericin and compounds of interest (concentrations as above) in Opti-MEM for 30 minutes. Cell media was then collected and the amount of cleaved IL-1β was determined using a JESS instrument (Protein Simple) and standard protocols. Cleaved Il-1β antibody was obtained from Cell Signaling (catalogue #83186S) and was used at 1:20 dilution in antibody diluent 2. Protein Simple 1× anti-Rabbit HRP secondary antibody was used along with Protein Simple luminol and peroxide for chemiluminescent detection. Primary antibody incubation time was increased from 30 minutes to 60 minutes.
# [1] = molecular target: T1, full-length recombinant human NEK7 (Homo sapiens, UniProt Q8TDX7); assay: NEK7 enzymatic assay; type: biochemical; conditions: recombinant human NEK7, casein substrate, radiolabelled ATP
# T1 construct: full-length recombinant human NEK7; GST (N); purchased SignalChem NO9-10G; host or cells: Sf9 insect cells (baculovirus)
# T1 sequence (Q8TDX7 whole entry): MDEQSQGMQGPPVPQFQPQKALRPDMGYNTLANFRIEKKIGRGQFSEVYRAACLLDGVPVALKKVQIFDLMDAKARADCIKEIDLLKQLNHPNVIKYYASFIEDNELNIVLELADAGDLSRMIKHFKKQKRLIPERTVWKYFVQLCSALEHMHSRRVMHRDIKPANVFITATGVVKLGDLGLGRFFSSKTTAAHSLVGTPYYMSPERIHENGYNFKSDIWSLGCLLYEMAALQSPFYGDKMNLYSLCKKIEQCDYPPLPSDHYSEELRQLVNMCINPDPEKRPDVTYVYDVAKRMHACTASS
# Outline: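 Full-length GST-tagged human NEK7 from Sf9 cells (assay concentration 70 nM) was used with casein (assay concentration 20 μM) in Hepes pH 7.5 buffer, 1% DMSO, and compound (3-fold dilutions, 10 μM to 0.5 nM) was preincubated 20 min at room temperature. Radiolabelled ATP was added for 2 h, phosphorylation was read on P81 paper, and IC50 was fitted from % activity remaining versus vehicle.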
Structure (SMILES),IC50 (IL-1β release),IC50 [1]
"CN1CCN(Cc2ccc(NC(=O)Nc3ccc(-c4cn(C5CCN(S(=O)(=O)C6CC6)CC5)c5ncnc(N)c45)cc3F)cc2C(F)(F)F)CC1 [Example I-102, 1-(4-(4-amino-7-(1-(cyclopropylsulfonyl)piperidin-4-yl)-7H-pyrrolo[2,3-d]pyrimidin-5-yl)-2-fluorophenyl)-3-(4-((4-methylpiperazin-1-yl)methyl)-3-(trifluoromethyl)phenyl)urea]",50 to 250 nM,< 100 nM
"CS(=O)(=O)N1CCN(Cc2ccc(NC(=O)Nc3ccc(-c4cn(C5CC5)c5ncnc(N)c45)cc3F)cc2C(F)(F)F)CC1 [Example I-98, 1-(4-(4-amino-7-cyclopropyl-7H-pyrrolo[2,3-d]pyrimidin-5-yl)-2-fluorophenyl)-3-(4-((4-(methylsulfonyl)piperazin-1-yl)methyl)-3-(trifluoromethyl)phenyl)urea]",> 1000 nM,500 to 2000 nM
"CN1CCN(Cc2ccc(NC(=O)Nc3ccc(-c4cn(C5CCN(C)C5)c5ncnc(N)c45)cc3F)cc2C(F)(F)F)CC1 (stereo not drawn) [Example I-20, 1-(4-(4-amino-7-(1-methylpyrrolidin-3-yl)-7H-pyrrolo[2,3-d]pyrimidin-5-yl)-2-fluorophenyl)-3-(4-((4-methylpiperazin-1-yl)methyl)-3-(trifluoromethyl)phenyl)urea]",< 50 nM,< 100 nM
"CN1CCN(Cc2ccc(NC(=O)Nc3ccc(-c4cn(C)c5ncnc(N)c45)cc3F)cc2C(F)(F)F)CC1 [Example I-18, 1-(4-(4-amino-7-methyl-7H-pyrrolo[2,3-d]pyrimidin-5-yl)-2-fluorophenyl)-3-(4-((4-methylpiperazin-1-yl)methyl)-3-(trifluoromethyl)phenyl)urea]",< 50 nM,< 100 nM
"CN1CCC(Oc2ccc(NC(=O)Nc3ccc(-c4cn(C5CC5)c5ncnc(N)c45)cc3F)cc2C(F)(F)F)C(F)C1 (single isomer, unassigned) [Example I-90, 1-(4-(4-amino-7-cyclopropyl-7H-pyrrolo[2,3-d]pyrimidin-5-yl)-2-fluorophenyl)-3-(4-((3-fluoro-1-methylpiperidin-4-yl)oxy)-3-(trifluoromethyl)phenyl)urea]",< 50 nM,< 100 nM
"CN1CCN(Cc2ncc(NC(=O)Nc3ccc(-c4cn(C5CC5)c5ncnc(N)c45)cc3F)cc2C(F)(F)F)CC1 [Example I-68, 1-(4-(4-amino-7-cyclopropyl-7H-pyrrolo[2,3-d]pyrimidin-5-yl)-2-fluorophenyl)-3-(6-((4-methylpiperazin-1-yl)methyl)-5-(trifluoromethyl)pyridin-3-yl)urea]",50 to 250 nM,100 to 500 nM
"CN1CCN(Cc2ccc(NC(=O)Nc3ccc(-c4nn(CC(C)(C)O)c5ncnc(N)c45)cc3F)cc2C(F)(F)F)CC1 [Example I-29, 1-(4-(4-amino-1-(2-hydroxy-2-methylpropyl)-1H-pyrazolo[3,4-d]pyrimidin-3-yl)-2-fluorophenyl)-3-(4-((4-methylpiperazin-1-yl)methyl)-3-(trifluoromethyl)phenyl)urea]",< 50 nM,< 100 nM
"CN1CCN(Cc2ccc(NC(=O)Nc3ccc(-c4cn(C5CC5)c5ncnc(N)c45)cc3F)c(C(F)(F)F)c2)CC1 [Example I-16, 1-(4-(4-amino-7-cyclopropyl-7H-pyrrolo[2,3-d]pyrimidin-5-yl)-2-fluorophenyl)-3-(4-((4-methylpiperazin-1-yl)methyl)-2-(trifluoromethyl)phenyl)urea]",> 1000 nM,> 2000 nM
"CN1CCN(Cc2ccc(NC(=O)Nc3ccc(-c4cn(C5CC5)c5ncnc(N)c45)cc3F)cc2OC(F)(F)F)CC1 [Example I-78, 1-(4-(4-amino-7-cyclopropyl-7H-pyrrolo[2,3-d]pyrimidin-5-yl)-2-fluorophenyl)-3-(4-((4-methylpiperazin-1-yl)methyl)-3-(trifluoromethoxy)phenyl)urea]",50 to 250 nM,100 to 500 nM
"CN1CCN(Cc2ccc(NC(=O)Nc3ccc(-c4cn(C5CCN(S(C)(=O)=O)CC5)c5ncnc(N)c45)cc3F)cc2C(F)(F)F)CC1 [Example I-101, 1-(4-(4-amino-7-(1-(methylsulfonyl)piperidin-4-yl)-7H-pyrrolo[2,3-d]pyrimidin-5-yl)-2-fluorophenyl)-3-(4-((4-methylpiperazin-1-yl)methyl)-3-(trifluoromethyl)phenyl)urea]",50 to 250 nM,< 100 nM
"Nc1ncnc2c1c(-c1ccc(NC(=O)Nc3ccc(CN4CCN(CCO)CC4)c(C(F)F)c3)c(F)c1)cn2C1CC1 [Example I-72, 1-(4-(4-amino-7-cyclopropyl-7H-pyrrolo[2,3-d]pyrimidin-5-yl)-2-fluorophenyl)-3-(3-(difluoromethyl)-4-((4-(2-hydroxyethyl)piperazin-1-yl)methyl)phenyl)urea]",50 to 250 nM,< 100 nM
"Nc1ncnc2c1c(-c1ccc(NC(=O)Nc3ccc(CN4CCC(N)CC4)c(C(F)(F)F)c3)c(F)c1)cn2C1CC1 [Example I-75, 1-(4-(4-amino-7-cyclopropyl-7H-pyrrolo[2,3-d]pyrimidin-5-yl)-2-fluorophenyl)-3-(4-((4-aminopiperidin-1-yl)methyl)-3-(trifluoromethyl)phenyl)urea]",> 1000 nM,100 to 500 nM
CN1CCN(C(=O)c2ccc(NC(=O)Nc3ccc(-c4cn(C5CC5)c5ncnc(N)c45)cc3F)cc2C(F)(F)F)CC1 [Example I-10],50 to 250 nM,100 to 500 nM
"CN(C)C1CCN(Cc2ccc(NC(=O)Nc3ccc(-c4cn(C5CC5)c5ncnc(N)c45)cc3F)cc2C(F)(F)F)C1 (stereo not drawn) [Example I-45, 1-(4-(4-amino-7-cyclopropyl-7H-pyrrolo[2,3-d]pyrimidin-5-yl)-2-fluorophenyl)-3-(4-((3-(dimethylamino)pyrrolidin-1-yl)methyl)-3-(trifluoromethyl)phenyl)urea]",< 50 nM,< 100 nM

# Results, then the compound that gave them:
IC50 (IL-1β release),IC50 [1],Structure (SMILES)
50 to 250 nM,100 to 500 nM,"CN1CCN(C(=O)c2ccc(NC(=O)Nc3ccc(-c4nn(C5CC5)c5ncnc(N)c45)cc3F)cc2C(F)(F)F)CC1 [Example I-49, 1-(4-(4-amino-1-cyclopropyl-1H-pyrazolo[3,4-d]pyrimidin-3-yl)-2-fluorophenyl)-3-(4-(4-methylpiperazine-1-carbonyl)-3-(trifluoromethyl)phenyl)urea]"
< 50 nM,< 100 nM,"Nc1ncnc2c1c(-c1ccc(NC(=O)Nc3ccc(CN4CCN(CCF)CC4)c(C(F)(F)F)c3)c(F)c1)cn2C1CC1 [Example I-84, 1-(4-(4-amino-7-cyclopropyl-7H-pyrrolo[2,3-d]pyrimidin-5-yl)-2-fluorophenyl)-3-(4-((4-(2-fluoroethyl)piperazin-1-yl)methyl)-3-(trifluoromethyl)phenyl)urea]"
< 50 nM,< 100 nM,"Nc1ncnc2c1c(-c1ccc(NC(=O)Nc3ccc(CN4CCN(CCO)CC4)c(C(F)(F)F)c3)c(F)c1)cn2C1CC1 [Example I-42, 1-(4-(4-amino-7-cyclopropyl-7H-pyrrolo[2,3-d]pyrimidin-5-yl)-2-fluorophenyl)-3-(4-((4-(2-hydroxyethyl)piperazin-1-yl)methyl)-3-(trifluoromethyl)phenyl)urea]"
> 1000 nM,< 100 nM,"CN1CCN(Cc2cc(NC(=O)Nc3ccc(-c4nn(C5CC5)c5ncnc(N)c45)cc3F)cc(C(F)(F)F)c2)CC1 [Example I-87, 1-(4-(4-amino-1-cyclopropyl-1H-pyrazolo[3,4-d]pyrimidin-3-yl)-2-fluorophenyl)-3-(3-((4-methylpiperazin-1-yl)methyl)-5-(trifluoromethyl)phenyl)urea]"
< 50 nM,< 100 nM,"CCN1CCN(Cc2ccc(NC(=O)Nc3ccc(-c4nn(C5CC5)c5ncnc(N)c45)cc3F)cc2C(F)(F)F)CC1 [Example I-50, 1-(4-(4-amino-1-cyclopropyl-1H-pyrazolo[3,4-d]pyrimidin-3-yl)-2-fluorophenyl)-3-(4-((4-ethylpiperazin-1-yl)methyl)-3-(trifluoromethyl)phenyl)urea]"
< 50 nM,< 100 nM,"COCCn1nc(-c2ccc(NC(=O)Nc3ccc(CN4CCN(C)CC4)c(C(F)(F)F)c3)c(F)c2)c2c(N)ncnc21 [Example I-77, 1-(4-(4-amino-1-(2-methoxyethyl)-1H-pyrazolo[3,4-d]pyrimidin-3-yl)-2-fluorophenyl)-3-(4-((4-methylpiperazin-1-yl)methyl)-3-(trifluoromethyl)phenyl)urea]"
> 1000 nM,< 100 nM,"Nc1ncnc2c1c(-c1ccc(NC(=O)Nc3ccc(CN4CCN(CCS(=O)(=O)O)CC4)c(C(F)(F)F)c3)c(F)c1)cn2C1CC1 [Example I-100, 2-(4-(4-(3-(4-(4-amino-7-cyclopropyl-7H-pyrrolo[2,3-d]pyrimidin-5-yl)-2-fluorophenyl)ureido)-2-(trifluoromethyl)benzyl)piperazin-1-yl)ethane-1-sulfonic acid]"

# Source: patent US20240317758A1 (Halia Therapeutics, Inc., priority 2021, published 2024)
